Data on one substance can be found in patent US20070107072A1, “Transgenic amphibian models for lymphatic vessel development” (priority 2003, published 2007).

The series deals with Prox-1. In words: Prox-1 antisense morpholino knockdown in Xenopus embryos, whole-mount in situ hybridisation for Prox1 and morphometry. In kind it is in vivo, Xenopus laevis. To be noted: for reduction of total Prox-1 positive area: as compared to control tadpoles. The method, then: In a second example 25 ng of Prox-1 antisense morpholino oligonucleotides (Prox-1 MOs) was microinjected in a 1-cell stage Xenopus, in order to investigate the influence on the development of the lymphatic system. Prox1 is known to be expressed exclusively in lymphatic but not in blood vascular endothelial cells. Xenopus laevis embryos were obtained by artificial fertilization using standard techniques and sexually mature adult frogs purchased from Nasco Biology (Fort Atkinson, Wis.). The Prox-1 MOs, 5′-[…]-3′, were purchased from Gene Tools (Corvallis, Oreg.) and designed around the ATG codon. As ATG-specific morpholinos lower translation—but not transcription—of the target gene, we used whole embryo mount in situ hybridisation for Prox1 to visualize the defects in lymphatic vascular development. The 5′ nucleotide sequence of Prox-1 was obtained using 5′ RACE using primers based on published Xenopus laevis cDNA (GenBank # AB008773). To visualise Prox-1 expression pattern, embryos were collected at different developmental stages (according to Nieuwkoop and Faber), fixed and submitted to whole-mount in situ hybridisation according Harland (Harland, 1991), with the exception that BM purple was used as a substrate. The Prox-1 digoxigenin-labeled riboprobe used was constructed from a 950 bp cDNA fragment (GenBank # AB008773), which was cloned into pGEMTeasy and linearised with AatII to get SP6 antisense probe. After in situ hybridisation the embryos where bleached, cleared and stored in glycerol until analysed. Analysis was performed using a Zeiss Axioplan 2 imaging microscope equipped with a Axiocam HrC camera and the KS300 morphometry software. The total ISH-region was divided into 3 different regions where the first region represents the ventral side the tail, a second region where the dorsal migration of prox-1 positive cells takes place and finally a third region which represents the dorsal side. For all regions, length of positive staining was measured, followed by segmentation of the ISH-area by hue, lightness and saturation for defining the true stained area. A value of migration is given by the cell that traveled furthest across the tail. In non-morpholino treated Xenopus we observed that the normal lymphatic system starts developing at the jugular region of the tadpole around developmental stage 29/30. Apart from expression in non-lymphatic tissues such as the pronephros and the eye, the Prox-1 expression at this stage seems to be restricted to the jugular region. At the following stage (31-32), the staining in the jugular region is expanded to what will become the future lymphsacs. The region of the future anterior lymph hearts as well as the ventral caudal region show intense Prox-1 positive signal too. By stage 33/34 the prox positive cells in the caudal region start the formation of the ventral caudal lymphatic vessel. Prox-1 positive lymphatic cells are migrating from the ventral to the dorsal region and this event is culminating at stage 35/36 where the highest amount of migrating cells can be accounted for. The formation of what eventually will become the dorsal lymphatic vessel is also initiated at this stage. By stage 37-38 a majority of the prox positive cells have reached the dorsal side where they are contributing to the formation of dorsal caudal lymphatic vessels. […] In the tail of the Prox-1 morphants dorsal migration of Pro-1 positive cells is dearly impaired. […]

For “5′-CAGGCATCACTGGACTGTTATTGTG-3′ (all phosphorodiamidate morpholino (PMO)) [Prox-1 MOs, Prox-1 antisense morpholino oligonucleotides purchased from Gene Tools, designed around the ATG codon]”, the “formation of the lymph hearts and the rostral lymphatic structures” value (Prox1 knockdown) was “impaired”. Further, for the setting “Prox1 morphants”, the “cardiogenesis (looping, septation and beating of the heart, and blood circulation)” value is on record as “all normal”. In addition, where the note is “Prox1 morphants”, the “development of blood vessels (number of Msr-positive intersomitic vessels in anterior trunk, Msr-positive area in posterior trunk)” value is listed as “not affected”. For the same substance, the “Prox-1 staining of the anterior region” value (Prox-1 morphants) is “clearly reduced”. Besides, the “edema in the head and anterior trunk” value (beyond stage 45) was “manifest edema in the head and anterior trunk developed in most Prox1 knockdown embryos”. In addition, the “reduction of total Prox-1 positive area” value by setting is: (stage 33/34) “about 60%”; (stage 35/36) ~50%; (stage 37/38) ~35%. Besides, the “reduction of dorsal migration of Prox-1 positive cells in the tail” value (stage 35/36, 25 ng microinjected in 1-cell stage, vs control tadpoles) was “about 55%”. Under “stage 37/38, 25 ng microinjected in 1-cell stage”, the “dorsal migration of Prox-1 positive cells in the tail” value is recorded as “significantly reduced”.
